This is an account of results in PubChem BioAssay AID1259407 (Chemical Carcinogenesis Research Information System (CCRIS), 2018).

Calls of active or inactive are those of the source. How the calls were made is not given here.

The data set has as its system CCRIS mutagenicity, Ames/micronucleus/aberration tests. Briefly: CCRIS mutagenicity studies.
Setting [1] is: Test System: AMES SALMONELLA TYPHIMURIUM, Strain/Indicator: TA98, Metabolic Activation: NONE, Method: STANDARD PLATE.
The mark [2] stands for this setting: Test System: AMES SALMONELLA TYPHIMURIUM, Strain/Indicator: TA100, Metabolic Activation: NONE, Method: PREINCUBATION
The mark [3] stands for this setting: Test System: AMES SALMONELLA TYPHIMURIUM, Strain/Indicator: TA100, Metabolic Activation: NONE, Method: STANDARD PLATE.
Setting [4] is: Test System: MOUSE LYMPHOMA, Strain/Indicator: L5178Y (TK+/TK-), Metabolic Activation: NONE, Method: SUSPENSION/PLATE.
The mark [5] stands for this setting: Test System: AMES SALMONELLA TYPHIMURIUM, Strain/Indicator: TA98, Metabolic Activation: RAT, LIVER, S-9, AROCLOR 1254, Method: STANDARD PLATE.
Setting [6] is: Test System: AMES SALMONELLA TYPHIMURIUM, Strain/Indicator: TA100, Metabolic Activation: RAT, LIVER, S-9, AROCLOR 1254, Method: STANDARD PLATE.
Where [7] appears, read: Test System: AMES SALMONELLA TYPHIMURIUM, Strain/Indicator: TA1535, Metabolic Activation: NONE, Method: STANDARD PLATE.
Where [8] appears, read: Test System: AMES SALMONELLA TYPHIMURIUM, Strain/Indicator: TA1535, Metabolic Activation: RAT, LIVER, S-9, AROCLOR 1254, Method: STANDARD PLATE.
[9] abbreviates: Test System: AMES SALMONELLA TYPHIMURIUM, Strain/Indicator: TA1537, Metabolic Activation: NONE, Method: STANDARD PLATE.
The mark [10] stands for this setting: Test System: AMES SALMONELLA TYPHIMURIUM, Strain/Indicator: TA1537, Metabolic Activation: RAT, LIVER, S-9, AROCLOR 1254, Method: STANDARD PLATE.

Regarding `Nc1nc(NO)c2[nH]cnc2n1`, the mutagenic call runs as follows: (Test System: AMES SALMONELLA TYPHIMURIUM, Strain/Indicator: HISG46, Metabolic Activation: NONE, Method: STANDARD PLATE) “active; positive”; under setting [1], “inactive; negative”; (Test System: AMES SALMONELLA TYPHIMURIUM, Strain/Indicator: TA100(1,8-DNP6), Metabolic Activation: NONE, Method: PREINCUBATION) “active; positive”; (Test System: AMES SALMONELLA TYPHIMURIUM, Strain/Indicator: TA100(NR), Metabolic Activation: NONE, Method: PREINCUBATION) “active; positive”; under setting [2], “active; positive”; under setting [3], “active; positive”. For the same compound, the mutagenic call is, setting by setting: (Test System: AMES SALMONELLA TYPHIMURIUM, Strain/Indicator: TA100, Metabolic Activation: RAT, LIVER, S-9, KANECHLOR 500, Method: PREINCUBATION) “active; positive”; (Test System: AMES SALMONELLA TYPHIMURIUM, Strain/Indicator: TA1950, Metabolic Activation: NONE, Method: STANDARD PLATE) “active; positive”; (Test System: CHINESE HAMSTER OVARY, Strain/Indicator: CHO-K1-BH4 (HGPRT), Metabolic Activation: NONE, Method: SUSPENSION) “active; positive”; (Test System: E. COLI, Strain/Indicator: CM871, Metabolic Activation: NONE, Method: STANDARD PLATE) “active; positive”; (Test System: E. COLI, Strain/Indicator: WP2, Metabolic Activation: NONE, Method: STANDARD PLATE) “active; positive”; (Test System: E. COLI, Strain/Indicator: WP2S, Metabolic Activation: NONE, Method: STANDARD PLATE) “active; positive”. Further, the mutagenic call reads like this: (Test System: E. COLI, Strain/Indicator: WP2 UVRA, Metabolic Activation: NONE, Method: STANDARD PLATE) “active; positive”; (Test System: MOUSE LYMPHOMA, Strain/Indicator: L5178Y (TK+/TK-)/6-THIOGUANINE, Metabolic Activation: NONE, Method: SUSPENSION) “active; positive”; (Test System: MOUSE LYMPHOMA, Strain/Indicator: L5178Y (TK+/TK-)/6-THIOGUANINE, Metabolic Activation: NONE, Method: SUSPENSION IN TRAYS) “active; positive”; (Test System: MOUSE LYMPHOMA, Strain/Indicator: L5178Y (TK+/TK-)/OUABAIN, Metabolic Activation: NONE, Method: SUSPENSION) “active; positive”; (Test System: MOUSE LYMPHOMA, Strain/Indicator: L5178Y (TK+/TK-)/OUABAIN, Metabolic Activation: NONE, Method: SUSPENSION IN TRAYS) “active; positive”; (Test System: MOUSE LYMPHOMA, Strain/Indicator: L5178Y (TK+/TK-)/TRIFLUOROTHYMIDINE, Metabolic Activation: NONE, Method: SUSPENSION) “active; positive”. In addition, the mutagenic call (Test System: MOUSE LYMPHOMA, Strain/Indicator: L5178Y (TK+/TK-)/TRIFLUOROTHYMIDINE, Metabolic Activation: NONE, Method: SUSPENSION IN TRAYS) is “active; positive” and the mutagenic call under setting [4] was “active; positive”.
Regarding `NC(=O)c1ccc(N)nc1`, the mutagenic call is, setting by setting: (Test System: CHINESE HAMSTER OVARY, Strain/Indicator: CHO/6-THIOGUANINE, Metabolic Activation: NONE) “inactive; negative”; (Test System: CHINESE HAMSTER OVARY, Strain/Indicator: CHO/6-THIOGUANINE, Metabolic Activation: RAT, LIVER, S-9) “inactive; negative”; (Test System: CHINESE HAMSTER OVARY, Strain/Indicator: CHO/OUABAIN, Metabolic Activation: NONE) “inactive; negative”; (Test System: CHINESE HAMSTER OVARY, Strain/Indicator: CHO/OUABAIN, Metabolic Activation: RAT, LIVER, S-9) “inactive; negative”.
With `CC1(c2ccc([N+](=O)[O-])cc2)CO1` (stereo not given), the mutagenic call under setting [2] is “active; positive”.
On the same count and under the same terms, the entry for `Cc1cc(=O)oc2ccc3c(c12)C1(C)OOC1(C)O3` (stereo not given) is “active; positive”.
Still for that read-out and setting: the same measure for `COc1cccc2c1OC1(C)OOC21C` (stereo not given): “active; positive”.
In the case of `C=C(C)OC(C)=O`, the mutagenic call is “inactive; negative” (Test System: AMES SALMONELLA TYPHIMURIUM, Strain/Indicator: TA98, Metabolic Activation: HAMSTER, LIVER, S-9, AROCLOR 1254, Method: STANDARD PLATE); “inactive; negative” under setting [1]; “inactive; negative” under setting [5]; “inactive; negative” (Test System: AMES SALMONELLA TYPHIMURIUM, Strain/Indicator: TA100, Metabolic Activation: HAMSTER, LIVER, S-9, AROCLOR 1254, Method: STANDARD PLATE); “inactive; negative” under setting [3]; “inactive; negative” under setting [6]. In addition, the mutagenic call (Test System: AMES SALMONELLA TYPHIMURIUM, Strain/Indicator: TA1535, Metabolic Activation: HAMSTER, LIVER, S-9, AROCLOR 1254, Method: STANDARD PLATE) is “inactive; negative”; the mutagenic call under setting [7] was “inactive; negative”; the mutagenic call under setting [8] is “inactive; negative”; the mutagenic call (Test System: AMES SALMONELLA TYPHIMURIUM, Strain/Indicator: TA1537, Metabolic Activation: HAMSTER, LIVER, S-9, AROCLOR 1254, Method: STANDARD PLATE) was “inactive; negative”; the mutagenic call under setting [9] is “inactive; negative”; the mutagenic call under setting [10] is “inactive; negative”. In addition, the mutagenic call is “inactive; negative” (Test System: AMES SALMONELLA TYPHIMURIUM, Strain/Indicator: TA1538, Metabolic Activation: HAMSTER, LIVER, S-9, AROCLOR 1254, Method: STANDARD PLATE); “inactive; negative” (Test System: AMES SALMONELLA TYPHIMURIUM, Strain/Indicator: TA1538, Metabolic Activation: NONE, Method: STANDARD PLATE); “inactive; negative” (Test System: AMES SALMONELLA TYPHIMURIUM, Strain/Indicator: TA1538, Metabolic Activation: RAT, LIVER, S-9, AROCLOR 1254, Method: STANDARD PLATE); “active; inconclusive (previously evaluated positive)” (Test System: Mouse lymphoma, Strain/Indicator: L5178Y (tk+/tk-), Metabolic Activation: None, Method: Suspension/plate); “inactive; negative” (Test System: Mouse lymphoma, Strain/Indicator: L5178Y (tk+/tk-), Metabolic Activation: Rat, liver, S-9, Aroclor 1254, Method: Suspension/plate).
For the compound `Cc1cc(C)nc(SC(=O)OC(C)(C)C)n1`, the mutagenic call under setting [1] is “inactive; negative”; the mutagenic call under setting [5] was “inactive; negative”; the mutagenic call under setting [3] is “inactive; negative”; the mutagenic call under setting [6] was “inactive; negative”; the mutagenic call under setting [7] was “inactive; negative”; the mutagenic call under setting [8] was “inactive; negative”. In addition, the mutagenic call by setting is: under setting [9], “inactive; negative”; under setting [10], “inactive; negative”.
With `CCCCCC(O)/C=C/C=O` (stereo not given), the mutagenic call is, setting by setting: (End Point: IN VITRO CHROMOSOMAL ABERRATIONS, Test System: RAT HEPATOCYTES, Metabolic Activation: NONE) “active; positive”; (End Point: IN VITRO CHROMOSOMAL ABERRATIONS, Test System: SWINE- BRAIN ENDOTHELIAL CELLS, Metabolic Activation: NONE) “active; positive”; (End Point: IN VITRO MICRONUCLEUS, Test System: RAT HEPATOCYTES, Metabolic Activation: NONE) “active; positive”; (End Point: IN VITRO MICRONUCLEUS, Test System: SWINE- BRAIN ENDOTHELIAL CELLS, Metabolic Activation: NONE) “active; positive”; (Test System: AMES SALMONELLA TYPHIMURIUM, Strain/Indicator: TA100, Metabolic Activation: NONE) “inactive; negative”; (Test System: AMES SALMONELLA TYPHIMURIUM, Strain/Indicator: TA104, Metabolic Activation: NONE) “inactive; negative”. In addition, the mutagenic call was “active; positive” (Test System: CHINESE HAMSTER V-79, Strain/Indicator: V-79/6-THIOGUANINE, Metabolic Activation: NONE) and “active; positive; administered as acetate” under setting [4].
